In patent US9808434B2, “Compound for treating cancer and diabetes” (CITY OF HOPE, priority 2011, dated 2017):

Assays:
3T3-L1 cells [1] = experiment: Adipocyte differentiation, Oil Red O staining; assay type: cell-based, mouse; details: preadipocytes 7 days in differentiating media (DM) + compound
Experimental: Two-day post-confluent 3T3-L1 preadipocyte cells were allowed to differentiate for 7 days in the presence of nothing, DM only, DM+ a test compound (COH-SR1, COH-SR2, COH-SR3, COH-SR4, COH-SR7, LR23 or LR59), or DM+ a positive control (TSA, C75, or Apicidin).
(§1) 3T3-L1 preadipocytes cells were treated with differentiating media (DM) with COH-SR4 (1 μM, 3 μM, or 5 μM) or without for 7 days. […] As used in FIG. 9C, U=undifferentiated, D=differentiated with cocktail media.

3T3-L1 cells [2] = experiment: Intracellular triglyceride contents, AdipoRed Assay; assay type: cell-based, mouse; details: 7 days in DM + compound
Experimental: Intracellular triglyceride contents were measured using AdipoRed Assay™ and the results were shown in relative fluorescence units (RFU) in FIG. 5.
as §1

[3] = test system: fully differentiated adipocytes; experiment: Dedifferentiation of fully differentiated adipocytes, Oil Red O staining; assay type: cell-based; details: differentiated 7 days, treated additional 3 days
Experimental: Fully differentiated adipocyte cells were differentiated for 7 days and were treated for additional 3 days with DM+ a test compound (COH-SR3, COH-SR7, or LR59), DM+ a positive control (Apicidin, TSA or C75), DM, or nothing (control).

U251 = experiment: Glioma ATP viability assay, U251; assay type: cell-based; details: Table 2
Experimental: (§2) Cells of each cell line (U251, U87, PBT-017, PBT018, PBT003 and PBT028) were treated with various concentrations (0˜100 μM) of COH-SR4 for 72 hours. Cell viabilities were determined by ATP viability assays. Data were represented as a ratio to vehicle (DMSO) control, and plotted as mean±SEM (n=12) obtained from 2˜3 experiments (FIG. 34A).
as §2, with “(U87, U251,” for “(U251, U87, PBT-017, PBT018,”, “PVT-017)” for “PBT028)”, “2-3” for “2˜3”, “34B).” for “34A).”
Cells of each cell line were treated with various concentrations (0˜100 μM) of COH-SR4 or various concentrations (0˜1000 μM) of TMZ for 72 hours. Cell viabilities were determined by ATP viability assays. Data were represented as a ratio to untreated cells as control, and plotted as mean±SEM (n=12) obtained from 2˜3 experiments (FIGS. 43A-B).

[4] = test system: undifferentiated 3T3-L1 cells; experiment: Preadipocyte viability, MTT assay; assay type: cell-based, mouse; details: 3 days, 2.5-25 μM
Experimental: Undifferentiated 3T3-LI cells were treated with COH-SR2, COH-SR3, COH-SR4, COH-SR7, LR23 or LR59 for 3 days at a concentration of 2.5 μM, 5 μM, 10 μM, 15 μM, 20 μM, or 25 μM. The cell viability for each treatment was determined by MTT assay (FIG. 7).

[5] = test system: NCI-60 human tumor cell lines; experiment: NCI-60 DTP Human Tumor Cell Line Drug Screening; assay type: cell-based; details: leukemia, NSCLC, colon, CNS, melanoma, ovarian, renal, prostate, breast lines
Excerpt: Moreover, preliminary data from the NCI-60 DTP Human Tumor Cell Line Drug Screening (http://dtp.nci.nih.gov/branches/btb/ivclsp.html) further confirmed the observations on these COH-SR compounds. […] A value of 100 meant no growth inhibition. A value of 20 meant 80% growth inhibition. A value of 0 meant no net growth over the course of the experiment. A value of −40 meant 40% lethality. A value of −100 meant all cells were dead.

HL-60 cells [6] = experiment: Differentiation of HL-60 cells (Giemsa-Wright, NBT, CD11b/CD14); assay type: cell-based, human; details: 48 hours, 2-10 μM
Experimental: HL-60 cells were incubated with a test compound at various concentrations (2˜10 μM), DMSO, or without any test compound for 48 hours, and then examined for morphologic changes by Giemsa-Wright stain. The results were observed microscopically and shown in FIG. 13 at a magnification of ×400. […] Such results were similar to cells treated with DMSO or all-trans retinoic acid (ATRA), wherein DMSO or ATRA terminally differentiated HL-60 cells into myeloid cells (FIG. 13).
HL-60 cells (2.5×10^5) were treated with or without a test compound for 48 hours and then stained with NBT, wherein positively-stained cells appeared as purple black (FIG. 14A). NBT positive cells were counted and the overall percentage was calculated based on 200 total cells counted for each treatment. Three˜four independent experiments were carried out, and data are shown as mean±SE (FIG. 14B). This measurement of “oxidative burst” by the NBT assay is a well-known and extensively tested functional marker of HL-60 cell differentiation.
HL-60 cells (2.5×10^5) were incubated with a test compound (COH-SR4 or COH-SR9) at a concentration of 0.5 μM, 1 μM, 2 μM, or 3 μM, or without any COH-SR compound for 48 hours and then assessed for the surface expression of CD11b (FIG. 14C) and CD14 (FIG. 14D) by flow cytometry, respectively. Three-four independent experiments were carried out, and data are shown as mean±SE (FIGS. 14C and 14D).

[7] = test system: HMLE breast cancer cell line; experiment: HMLE viability, DIMSCAN assay; assay type: cell-based, human; details: 3 days, 2-50 μM
Experimental: The effects of COH-SR compounds on breast cancer cells were investigated. Cells from 4T1 or HMLE breast cancer cell line were seeded in 96-well plates (about 2000 cells/well), allowed to proliferate for one day, treated with a COH-SR compound, doxorubicin, paclitaxel, cisplatin, or nothing (control) at a specific dose (3 wells for each treatment) and assayed for cell viability 3 days after using DIMSCAN assay. COH-SR3, COH-SR4, COH-SR9, doxorubicin, paclitaxel, and cisplatin were used at a dosage of 40 nM, 200 nM, 1 μM, 2 μM, 10 μM, or 50 μM for 4T1 breast cancer cell lines. COH-SR14 was used at a dosage of 40 nM, 200 nM, 1 μM, 2 μM, or 10 μM for 4T1 breast cancer cell lines. COH-SR3, COH-SR4, COH-SR9, doxorubicin, paclitaxel, and cisplatin were used at a dosage of 2 μM, 10 μM, or 50 μM for HMLE breast cancer cell lines. COH-SR14 was used at a dosage of 2 μM, or 10 μM for HMLE breast cancer cell lines.

HL-60 cells [8] = experiment: HL-60 cell viability, MTT assay; details: for cytotoxicity and cell proliferation: 48 hours, 1-15 μM; for IC50: Homo sapiens, HL-60, 48 h
Experimental: Three independent experiments were carried out with 3 duplications each, and data are shown as mean±SE.

AMPK = AMPK activation in Hela cells, Western blot; assay type: cell-based; details: 1 hour, 1, 3 or 5 μM
Experimental: Activation of AMPK was associated with the phosphorylation of the α-subunit on Thr-172 of as assessed using phospho-specific antibodies (FIGS. 10A-B). AMPK activation also leads to the increased phosphorylation of the target protein acetyl-CoA carboxylase (ACC) (FIG. 10B).
Cells of each cell lines (Hela, HL-60, and 3T3-L1) were treated for 1 hour with a test compound (COH-SR4, COH-SR9, COH-SR16, or COH-SR18) at a concentration of 1 μM, 3 μM, or 5 μM, or AICAR (5-aminoimidazole-4-carboxamideriboside, an AMPK agonist used as positive control) at a concentration of 500 μM, or none of the above (the untreated cells as negative control). Total cell lysates from the untreated cells and the cells treated with a test compound or AICAR were analyzed by Western blot assay using specific antibodies against phospho-AMPK, phospho-ACC, total AMPK and total ACC.

## 1-(4-chlorobenzyl)-3-dichlorophenyeureido)-4-phenoxyisobutyric acid [LR59]
3T3-L1 cells [1]
  differentiation and accumulation of lipid droplets (Oil Red O staining): dose-dependently inhibited differentiation and accumulation of lipid droplets
3T3-L1 cells [2]
  intracellular triglyceride contents (AdipoRed Assay): dose-dependently reduced
[3]
  dedifferentiation of fully differentiated adipocytes: induced dedifferentiation of fully differentiated adipocytes

## O=c1[nH]cc(F)c(=O)[nH]1 [5-FU]
U251; 72 hours
  IC50: 61 µM

## COc1cc(CCC(=O)CC(=O)CCc2ccc(OC(C)=O)c(OC)c2)ccc1OC(C)=O [COH-SR1, 1,7-bis(4′-acetoxy-3′-methoxyphenyl)-3,5-heptadione]
3T3-L1 cells [1]
  differentiation and accumulation of lipid droplets (Oil Red O staining): dose-dependently inhibited differentiation and accumulation of lipid droplets
3T3-L1 cells [2]
  intracellular triglyceride contents (AdipoRed Assay): dose-dependently reduced

## COc1cc(/C=C/C(=O)/C=C(O)/C=C/c2ccc(OC(C)=O)c(OC)c2)ccc1O [COH-SR2, (1E,4Z,6E)-7-(4″-acetoxy-3″-methoxyphenyl)-5-hydroxy-1-(4′-hydroxy-3′-methoxyphenyl)hepta-1,4,6-trien-3-one]
3T3-L1 cells [1]
  differentiation and accumulation of lipid droplets (Oil Red O staining): dose-dependently inhibited differentiation and accumulation of lipid droplets
3T3-L1 cells [2]
  intracellular triglyceride contents (AdipoRed Assay): dose-dependently reduced
[4]
  growth of undifferentiated preadipocytes (MTT): inhibited growth of undifferentiated 3T3-L1 cells
[5]
  activity in NCI-60 screening: active against

## O=C(Nc1ccc(Cl)c(Cl)c1)Nc1ccc(Cl)c(Cl)c1 [COH-SR3, 1,3-bis(3,4-dichlorophenyl)urea]
3T3-L1 cells [1]
  differentiation and accumulation of lipid droplets (Oil Red O staining): dose-dependently inhibited differentiation and accumulation of lipid droplets
3T3-L1 cells [2]
  intracellular triglyceride contents (AdipoRed Assay): dose-dependently reduced
[3]
  dedifferentiation of fully differentiated adipocytes: induced dedifferentiation of fully differentiated adipocytes
[4]
  growth of undifferentiated preadipocytes (MTT): inhibited growth of undifferentiated 3T3-L1 cells
HL-60 cells [6]
  morphologic changes (Giemsa-Wright stain), myeloid differentiation: exhibited cytoplasmic vacuolation, reduced nucleus-to-cytoplasmic ratio, and absence of prominent nucleoli
[5]
  activity in NCI-60 screening: active against
[7]
  cytotoxic effects compared with doxorubicin, paclitaxel and cisplatin (FIG. 30): more potent cytotoxic effects
HL-60 cells [8]
  cytotoxicity and cell proliferation: exhibited cytotoxicity and prevented cell proliferation of HL-60 leukemia cells
  IC50: < 5 µM

## COc1ccc(-c2ccccc2)cc1NC(=O)Nc1cc(Cl)cc(Cl)c1 [COH-SR6, 1-(3,5-dichlorophenyl)-3-(4-methoxy-[1,1′-bisphenyl]-3-yl) urea]
HL-60 cells [6]
  morphologic changes (Giemsa-Wright stain), myeloid differentiation: exhibited cytoplasmic vacuolation, reduced nucleus-to-cytoplasmic ratio, and absence of prominent nucleoli
[5]
  activity in NCI-60 screening: active against
HL-60 cells [8]
  cytotoxicity and cell proliferation: exhibited cytotoxicity and prevented cell proliferation of HL-60 leukemia cells

## CC(C)(Oc1ccc(NC(=O)Nc2cc(Cl)cc(Cl)c2)cc1)C(=O)Nc1ccc(C(=O)O)cc1 [COH-SR7, 4-[(3,5-dichlorophenylureido)phenoxyisobutyril]-4-aminobenzoic acid]
3T3-L1 cells [1]
  differentiation and accumulation of lipid droplets (Oil Red O staining): dose-dependently inhibited differentiation and accumulation of lipid droplets
3T3-L1 cells [2]
  intracellular triglyceride contents (AdipoRed Assay): dose-dependently reduced
[3]
  dedifferentiation of fully differentiated adipocytes: induced dedifferentiation of fully differentiated adipocytes
[4]
  growth of undifferentiated preadipocytes (MTT): inhibited growth of undifferentiated 3T3-L1 cells
HL-60 cells [6]
  morphologic changes (Giemsa-Wright stain), myeloid differentiation: exhibited cytoplasmic vacuolation, reduced nucleus-to-cytoplasmic ratio, and absence of prominent nucleoli

## Cc1c(Cl)cc(NC(=O)Nc2cc(Cl)cc(Cl)c2)cc1Cl [COH-SR14, 1-(3,5-dichloro-4-methylphenyl)-3-(3,5-dichlorophenyl) urea]
[5]
  activity in NCI-60 screening: active against
[7]
  cytotoxic effects compared with doxorubicin, paclitaxel and cisplatin (FIG. 30): more potent cytotoxic effects
HL-60 cells [8]
  IC50: < 5 µM

## O=C(Nc1cc(Cl)cc(Cl)c1)Nc1cc(Cl)nc(Cl)c1 [COH-SR16, 1-(2,6-dichloropyridin-4-yl)-3-(3,5-dichlorophenyl) urea]
AMPK
  AMPK activation: Dose-dependent AMPK activation
[5]
  activity in NCI-60 screening: active against

## O=C(Nc1cc(Cl)cc(Cl)c1)Nc1ccnc(Cl)n1 [COH-SR18, 1-(2-chloropyrimidin-4-yl)-3-(3,5-dichlorophenyl) urea]
AMPK
  AMPK activation: Dose-dependent AMPK activation

## CCc1c2c(nc3ccc(OC(=O)N4CCC(N5CCCCC5)CC4)cc13)-c1cc3c(c(=O)n1C2)COC(=O)[C@]3(O)CC [CPT-11, irinotecan]
U251; Homo sapiens, U-251, 72 h
  IC50: 41.1 µM

## CC(C)(Oc1ccc(NC(=O)Nc2cc(Cl)cc(Cl)c2)cc1)C(=O)NC1(C(=O)O)CCCCC1 [LR23, 4-(3,5-dichlorophenylureido)phenoxyisobutyryl-1-amidocyclohexane-lcarboxylic acid]
3T3-L1 cells [1]
  differentiation and accumulation of lipid droplets (Oil Red O staining): dose-dependently inhibited differentiation and accumulation of lipid droplets
3T3-L1 cells [2]
  intracellular triglyceride contents (AdipoRed Assay): dose-dependently reduced

## CCc1c2c(nc3ccc(O)cc13)-c1cc3c(c(=O)n1C2)COC(=O)[C@]3(O)CC [SN-38, 7-ethyl-10-hydroxy-camptothecin]
U251; 72 hours
  IC50: 0.04 µM
